# From US11939334B2, “Substituted pyrimido[4,5-b][1,4]diazepines as PLK1 degradation inducers” (UPPTHERA, INC., priority 2021, dated 2024)
# How the values were obtained:
# MRC-5 cell line = assay: Cell viability assay for MRC-5 cell line; conditions: for IC50: Homo sapiens, MRC5, 120 h, read-out: Activity: IC50 value (nM) to MRC-5 cell line
# Protocol: (§1) Cell Viability Assay for MRC-5 Cell Line
# (1) Culture of MRC-5 Cell Line
# (§2) The MRC-5 cell line was purchased from Korea Cell Line Bank (KCLB), Seoul, Korea. Passage of cultured cells was maintained within P15.
# (§3) (2) Treatment of Compounds of the Present Invention
# (§4) 6×10^3 cells were seeded for each well of a 96-well plate (SPL), and the cells were cultured in total volume of 150 μL.
# (§5) Each well was mixed with a medium and treated, and the volume was set to 50 μL, so that the total volume of each well was 200 μL. Then, it was cultured in 37° C.
# (§6) The following compounds were used as comparative examples, and the cell viability assay was performed in the same manner as in the compounds of Examples.
# (3) Cytotoxicity Experiment
# (§7) After treating EZ-Cytox (DOGEN, Cat. NO. EZ-3000, Lot. No. DLS2112) 20 μL in each well of completely cultured plate, it was cultured in 37° C. CO2 incubator for 4 hours. […] The data were converted into graphs using the Prism (ver. 9) program.
# PLK1 = target: T1, PLK1 (Homo sapiens, UniProt P53350); assay: Luciferase assay for PLK1 in HeLa LgBit (Plk1-HiBit KI) cell line; format: cell-based; conditions: 300 nM compound, luminescence after 9 hours
# T1 construct: endogenous in cells; host or cells: HeLa cells stably expressing LgBit, with CRISPR/Cas9 knock-in of HiBit at the endogenous PLK1 locus
# T1 sequence (P53350 whole entry): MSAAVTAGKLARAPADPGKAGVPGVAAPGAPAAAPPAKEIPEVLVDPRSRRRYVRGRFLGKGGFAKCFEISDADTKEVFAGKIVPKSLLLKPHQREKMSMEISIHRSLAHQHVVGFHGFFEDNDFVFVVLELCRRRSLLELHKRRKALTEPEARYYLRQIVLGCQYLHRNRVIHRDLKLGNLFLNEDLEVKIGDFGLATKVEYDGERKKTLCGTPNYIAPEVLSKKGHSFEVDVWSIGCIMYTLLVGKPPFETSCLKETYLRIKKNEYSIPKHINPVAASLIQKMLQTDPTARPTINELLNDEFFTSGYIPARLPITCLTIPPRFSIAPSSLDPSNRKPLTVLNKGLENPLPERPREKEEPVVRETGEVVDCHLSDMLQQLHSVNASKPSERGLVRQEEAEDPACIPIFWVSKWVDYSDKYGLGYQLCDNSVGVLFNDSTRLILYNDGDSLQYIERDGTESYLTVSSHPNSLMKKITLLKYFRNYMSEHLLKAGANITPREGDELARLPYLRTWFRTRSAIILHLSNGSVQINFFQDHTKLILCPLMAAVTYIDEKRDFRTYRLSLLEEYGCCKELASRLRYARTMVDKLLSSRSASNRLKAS
# Outline: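 HeLa LgBit cells with endogenous Plk1 C-terminally HiBiT-tagged by CRISPR knock-in were synchronized by 2 mM thymidine block for 24 h, then released and seeded. After 18 h, Endurazine was added and compounds were dosed at 300 nM. Luminescence was tracked in real time; activity is the ratio to DMSO.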
# H526 cell line = assay: Cell viability assay for H526 cell line; format: cell-based; conditions: Homo sapiens, NCI-H526, 120 h; H526 cells, 5 days, EZ-Cytox, 0.46-3000 nM
# Outline: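 NCI-H526 cells exposed to compounds for 5 days in a CO2 incubator; viability read as absorbance at 450 nm after 3 min plate shaking; IC50 derived from treatment response.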
# [1] = Cell viability assay for MRC-5 cell line; conditions: human
# Protocol: as §1
# (1) Culture of MRC-5 Cell Line
# as §2, §3, §4, §5, §6
# (3) Cytotoxicity Experiment
# as §7
Structure (SMILES),Activity: ratio of the luminescence value of each Exemplary Compound treatment group to DMSO treatment group (PLK1),cytotoxicity in normal cell line (in words) (MRC-5 cell line; MRC-5 cell line),IC50 (H526 cell line) [µM],IC50 (MRC-5 cell line) [nM],IC50 at 5 days ([1]; MRC-5 cells (normal cell line)) [µM],IC50 at 5 days [1] [µM]
"CC[C@@H]1C(=O)N(C)c2cnc(Nc3ccc(C(=O)NCCOCCOCCNc4cccc5c4C(=O)N(C4CCC(=O)NC4=O)C5=O)cc3OC)nc2N1C1CCCC1 (stereo partly shown) [Comparative Compound 1, reference compound]",–,high level of cytotoxicity in normal cell line,–,–,–,–
"COc1cc(C(=O)NC2CC(N(C)CCC3CCN(c4cccc(C5CCC(=O)NC5=O)c4)CC3)C2)ccc1Nc1ncc2c(n1)N(C(C)C)CC1(CC1)C(=O)N2C (stereo not shown) [Compound 6, N-(3-((2-(1-(3-(2,6-dioxopiperidin-3-yl)phenyl)piperidin-4-yl)ethyl)(methyl)amino)cyclobutyl)-4-((9′-isopropyl-5′-methyl-6′-oxo-5′,6′,8′,9′-tetrahydrospiro[cyclopropane-1,7′-pyrimido[4,5-b][1,4]diazepin]-2′-yl)amino)-3-methoxybenzamide]",++ (++ <0.6),–,< 0.4,12300,–,–
"COc1cc(C(=O)NC2CCC(N(C)CC3CCN(c4ccc(C5CCC(=O)NC5=O)cc4F)CC3)CC2)ccc1Nc1ncc2c(n1)N(C(C)C)CC(F)(F)C(=O)N2C (stereo not shown) [Compound 7, 4-((7,7-difluoro-9-isopropyl-5-methyl-6-oxo-6,7,8,9-tetrahydro-5H-pyrimido[4,5-b][1,4]diazepin-2-yl)amino)-N-((1r,4r)-4-(((1-(4-(2,6-dioxopiperidin-3-yl)-2-fluorophenyl)piperidin-4-yl)methyl)(methyl)amino)cyclohexyl)-3-methoxybenzamide]",+++ (+++: <0.3),–,< 0.03,13000,–,–
"COc1cc(C(=O)N[C@H]2CC[C@H](N(C)CCN3CCN(c4ccc(C5CCC(=O)NC5=O)cc4F)CC3)CC2)ccc1Nc1ncc2c(n1)N(C(C)C)CC(F)(F)C(=O)N2C (stereo partly shown) [Compound 9, 4-((7,7-difluoro-9-isopropyl-5-methyl-6-oxo-6,7,8,9-tetrahydro-5H-pyrimido[4,5-b][1,4]diazepin-2-yl)amino)-N-((1r,4r)-4-((2-(4-(4-(2,6-dioxopiperidin-3-yl)-2-fluorophenyl)piperazin-1-yl)ethyl)(methyl)amino)cyclohexyl)-3-methoxybenzamide]",++ (++ <0.6),–,< 0.05,16600,–,–
"COc1cc(C(=O)NC2CCC(CCN3CCN(c4ccc(C5CCC(=O)NC5=O)cc4F)CC3)CC2)ccc1Nc1ncc2c(n1)N(C(C)C)CC(F)(F)C(=O)N2C (stereo not shown) [Compound 43, 4-((7,7-difluoro-9-isopropyl-5-methyl-6-oxo-6,7,8,9-tetrahydro-5H-pyrimido[4,5-b][1,4]diazepin-2-yl)amino)-N-((1r,4r)-4-(2-(4-(4-(2,6-dioxopiperidin-3-yl)-2-fluorophenyl)piperazin-1-yl)ethyl)cyclohexyl)-3-methoxybenzamide]",+++ (+++: <0.3),–,< 0.03,–,> 10,–
"COc1cc(C(=O)NC2CC23CCN(CC2CCN(c4ccc(C5CCC(=O)NC5=O)cc4F)CC2)CC3)ccc1Nc1ncc2c(n1)N(C(C)C)CC(F)(F)C(=O)N2C (stereo not shown) [Compound 46, 4-((7,7-difluoro-9-isopropyl-5-methyl-6-oxo-6,7,8,9-tetrahydro-5H-pyrimido[4,5-b][1,4]diazepin-2-yl)amino)-N-(6-((1-(4-(2,6-dioxopiperidin-3-yl)-2-fluorophenyl)piperidin-4-yl)methyl)-6-azaspiro[2.5]octan-1-yl)-3-methoxybenzamide]",+++ (+++: <0.3),–,< 0.1,–,–,> 10

# Continued, in another order:
Activity: ratio of the luminescence value of each Exemplary Compound treatment group to DMSO treatment group (PLK1),Structure (SMILES),cytotoxicity in normal cell line (in words) (MRC-5 cell line; MRC-5 cell line),IC50 (H526 cell line) [µM],IC50 (MRC-5 cell line) [nM],IC50 at 5 days ([1]; MRC-5 cells (normal cell line)) [µM],IC50 at 5 days [1] [µM]
++ (++ <0.6),"COc1cc(C(=O)N[C@H]2CC[C@H](N(C)CCN3CCN(c4c(F)cc(C5CCC(=O)NC5=O)cc4F)CC3)CC2)ccc1Nc1ncc2c(n1)N(C(C)C)CC(F)(F)C(=O)N2C (stereo partly shown) [Compound 10, 4-((7,7-difluoro-9-isopropyl-5-methyl-6-oxo-6,7,8,9-tetrahydro-5H-pyrimido[4,5-b][1,4]diazepin-2-yl)amino)-N-((1r,4r)-4-((2-(4-(4-(2,6-dioxopiperidin-3-yl)-2,6-difluorophenyl)piperazin-1-yl)ethyl)(methyl)amino)cyclohexyl)-3-methoxybenzamide]",–,< 0.05,15600,–,–
++ (++ <0.6),"COc1cc(C(=O)NC2CCN(CC3CN(c4ccc(C5CCC(=O)NC5=O)cc4F)C3)CC2)ccc1Nc1ncc2c(n1)N(C(C)C)CC(F)(F)C(=O)N2C (stereo not shown) [Compound 12, 4-((7,7-difluoro-9-isopropyl-5-methyl-6-oxo-6,7,8,9-tetrahydro-5H-pyrimido[4,5-b][1,4]diazepin-2-yl)amino)-N-(1-((1-(4-(2,6-dioxopiperidin-3-yl)-2-fluorophenyl)azetidin-3-yl)methyl)piperidin-4-yl)-3-methoxybenzamide]",–,< 0.05,24600,–,–
++ (++ <0.6),"COc1cc(C(=O)NC2CC3(CCN(CC4CCN(c5ccc(C6CCC(=O)NC6=O)cc5F)CC4)CC3)C2)c(F)cc1Nc1ncc2c(n1)N(C(C)C)CC(F)(F)C(=O)N2C (stereo not shown) [Compound 14, 4-((7,7-difluoro-9-isopropyl-5-methyl-6-oxo-6,7,8,9-tetrahydro-5H-pyrimido[4,5-b][1,4]diazepin-2-yl)amino)-N-(7-((1-(4-(2,6-dioxopiperidin-3-yl)-2-fluorophenyl)piperidin-4-yl)methyl)-7-azaspiro[3.5]nonan-2-yl)-2-fluoro-5-methoxybenzamide]",–,< 0.05,14700,–,–
+++ (+++: <0.3),"COc1cc(C(=O)NC2CC(N(C)CC3CCN(c4ccc(C5CCC(=O)NC5=O)cc4F)CC3)C2)ccc1Nc1ncc2c(n1)N(C(C)C)CC(F)(F)C(=O)N2C (stereo not shown) [Compound 44, 4-((7,7-difluoro-9-isopropyl-5-methyl-6-oxo-6,7,8,9-tetrahydro-5H-pyrimido[4,5-b][1,4]diazepin-2-yl)amino)-N-(3-(((1-(4-(2,6-dioxopiperidin-3-yl)-2-fluorophenyl)piperidin-4-yl)methyl)(methyl)amino)cyclobutyl)-3-methoxybenzamide]",–,< 0.03,–,> 10,–
+++ (+++: <0.3),"COc1cc(C(=O)NN2CCC(CCN3CCN(c4ccc(C5CCC(=O)NC5=O)cc4F)CC3)CC2)ccc1Nc1ncc2c(n1)N(C(C)C)CC(F)(F)C(=O)N2C (stereo not shown) [Compound 45, 4-((7,7-difluoro-9-isopropyl-5-methyl-6-oxo-6,7,8,9-tetrahydro-5H-pyrimido[4,5-b][1,4]diazepin-2-yl)amino)-N-(4-(2-(4-(4-(2,6-dioxopiperidin-3-yl)-2-fluorophenyl)piperazin-1-yl)ethyl)piperidin-1-yl)-3-methoxybenzamide]",–,< 0.03,–,> 10,–
